Data: ChEMBL document CHEMBL1129697, “Synthesis and anticonvulsant evaluation of a series of (R)- and (S)-N-Cbz--aminoglutarimide and succinimide” (Bioorg Med Chem Lett, 1996)
Calls of active or inactive are those of the source. The calls are words filed in the database; no cut-off is given here.

How the values were obtained:
[1] = Compound was tested for anticonvulsant activity in male mice using maximal electric shock seizure test; Protective index = TD50/ED50; format: ADME; settings: mouse, read-out: PI
Mus musculus [2] = organism: Mus musculus; assay: Compound was tested for anticonvulsant activity in male mice using maximal electric shock seizure test.; format: functional
[3] = Compound was tested for neurotoxic activity in male mice using rotarod test.; format: ADME; settings: mouse, in vivo
Mus musculus [4] = assay: Compound was tested for anticonvulsant activity in male mice by pentylenetetrazole (80 mg/kg, sc) induced seizure test.; format: functional
[5] = Compound was tested for anticonvulsant activity in male mice by pentylenetetrazole (80 mg/kg, sc) induced seizure test.; Protective index = TD50/ED50; format: ADME, organism-based; settings: mouse, in vivo, read-out: PI
[6] = Compound was tested for anticonvulsant activity in male mice using maximal electric shock seizure test.; Protective index = TD50/ED50; format: ADME; settings: mouse, read-out: PI
Mus musculus [7] = assay: Compound was tested for anticonvulsant activity in male mice by pentylenetetrazole (80 mg/kg, sc) induced seizure test.; No effect; format: functional, organism-based
Mus musculus [8] = organism: Mus musculus; assay: Compound was tested for anticonvulsant activity in male mice using maximal electric shock seizure test; No effect; format: functional, organism-based

Row | SMILES | selectivity ratio [1] | ED50 (Mus musculus [2]) [mg/kg] | TD50 [3] [mg/kg] | ED50 (Mus musculus [4]) [mg/kg] | selectivity ratio [5] | selectivity ratio [6] | ED50 (Mus musculus [7]) | ED50 (Mus musculus [8])
1 | O=C1CC[C@@H](NC(=O)OCc2ccccc2)C(=O)N1 | 2.2 | 56.3 | 122 | 46.9 | 2.6 | – | – | –
2 | O=C1C[C@@H](NC(=O)OCc2ccccc2)C(=O)N1 | 1.4 | 125 | 178 | 110 | 1.6 | – | – | –
3 | CN1C(=O)CC[C@H](NC(=O)OCc2ccccc2)C1=O | 1.7 | 36.1 | 62.5 | 12.5 | 5 | – | – | –
4 | CN1C(=O)CC(C)(c2ccccc2)C1=O (stereo not drawn) [METHSUXIMIDE] | 3.1 | 42.6 | 130 | 34.5 | 3.7 | – | – | –
5 | CN1C(=O)OC(C)(C)C1=O [TRIMETHADIONE] | 1.5 | 704 | 1070 | 250 | 4.3 | – | – | –
6 | CN1C(=O)CC[C@@H](NC(=O)OCc2ccccc2)C1=O | – | 47.5 | 120 | 24.4 | 4.9 | 2.5 | – | –
7 | O=C1NC(=O)C(c2ccccc2)(c2ccccc2)N1 | – | – | – | – | – | – | inactive | –
8 | CCCC(CCC)C(=O)O [VALPROIC ACID] | – | 272 | – | 149 | – | – | – | –
9 | O=C1C[C@H](NC(=O)OCc2ccccc2)C(=O)N1 | 1.6 | 103 | 161 | 78.1 | 2.1 | – | – | –
10 | CCC1(C)CC(=O)NC1=O (stereo not drawn) [ETHOSUXIMIDE] | – | – | – | 130 | 3.4 | – | – | inactive
11 | O=C1CC[C@H](NC(=O)OCc2ccccc2)C(=O)N1 | 3 | 43.1 | 130 | 42.5 | 3.1 | – | – | –
12 | CN1C(=O)C[C@@H](NC(=O)OCc2ccccc2)C1=O | 3.2 | 52.5 | 167 | 82.5 | 2 | – | – | –
13 | CCC1(c2ccccc2)C(=O)NC(=O)NC1=O [PHENOBARBITAL] | – | 21.8 | – | 13.1 | – | – | – | –
14 | CN1C(=O)C[C@H](NC(=O)OCc2ccccc2)C1=O | 1.9 | 61.2 | 118 | 113 | 1 | – | – | –
